Experimental data from paper PMC8658824, “ThermoSlope: A Software for Determining Thermodynamic Parameters from Single Steady-State Experiments” (Molecules, 2021).

T1: Pig porcine α-amylase (PPA) (Sus scrofa, UniProt P00690)
T1 construct: gene AMY2; commercial native enzyme (Sigma-Aldrich A4268)
T1 sequence (P00690 16-511): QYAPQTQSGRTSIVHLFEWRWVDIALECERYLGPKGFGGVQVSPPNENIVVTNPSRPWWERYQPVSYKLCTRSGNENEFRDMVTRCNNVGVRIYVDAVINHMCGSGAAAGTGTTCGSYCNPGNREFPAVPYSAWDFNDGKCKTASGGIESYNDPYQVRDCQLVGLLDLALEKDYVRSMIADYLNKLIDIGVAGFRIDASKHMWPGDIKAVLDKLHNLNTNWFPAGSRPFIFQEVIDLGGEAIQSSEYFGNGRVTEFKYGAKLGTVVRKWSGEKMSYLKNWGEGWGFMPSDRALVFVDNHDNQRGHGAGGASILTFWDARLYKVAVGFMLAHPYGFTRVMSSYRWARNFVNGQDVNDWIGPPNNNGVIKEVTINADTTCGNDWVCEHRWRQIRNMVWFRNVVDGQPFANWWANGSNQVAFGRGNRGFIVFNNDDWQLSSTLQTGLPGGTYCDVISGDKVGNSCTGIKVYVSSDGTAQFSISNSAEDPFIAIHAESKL

T2: Pseudoalteromonas haloplanktis α-amylase (AHA) (Pseudoalteromonas haloplanktis, UniProt P29957)
T2 construct: gene amy; recombinant, E. coli, same protocol as pLipA (IMAC, then HiTrap SP)
T2 sequence (P29957 25-477): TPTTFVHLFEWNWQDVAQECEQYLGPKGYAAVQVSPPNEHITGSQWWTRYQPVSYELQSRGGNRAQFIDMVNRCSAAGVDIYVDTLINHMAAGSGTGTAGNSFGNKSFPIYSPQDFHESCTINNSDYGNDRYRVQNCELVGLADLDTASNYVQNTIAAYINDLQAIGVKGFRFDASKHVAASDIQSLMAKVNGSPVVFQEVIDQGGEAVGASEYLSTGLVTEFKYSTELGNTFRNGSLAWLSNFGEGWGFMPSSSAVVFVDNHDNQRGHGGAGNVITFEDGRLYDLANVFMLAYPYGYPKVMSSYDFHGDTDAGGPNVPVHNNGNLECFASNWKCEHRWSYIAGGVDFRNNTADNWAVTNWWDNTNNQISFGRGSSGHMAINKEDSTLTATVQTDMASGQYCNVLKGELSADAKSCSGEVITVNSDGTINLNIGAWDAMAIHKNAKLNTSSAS

B1: pLipA (Bacillus pumilus LipA; Lipase L5) (Bacillus pumilus) (protein)
chain: AEHNPVVMVHGMGGASYNFASIKSYLVTQGWDRNQLFAIDFIDKTGNNRNNGPRLSRFVKDVLGKTGAKKVDIVAHSMGGANTLYYIKNLDGGDKIENVVTLGGANGLVSLRALPGTDPNQKILYTSVYSSADMIVVNSLSRLIGARNVLIHGVGHISLLASSQVKGYIKEGLNGGGQNTN
notes: residues 35-215, codon-optimised synthetic gene in pET-22b(+) NdeI/XhoI, His-tag purified (tag removal not mentioned), E. coli NiCo21(DE3)

How the values were obtained:
[1] = biological target: T1, Pig porcine α-amylase (PPA); experiment: colourimetric, […] nm, temperature gradient (ThermoSlope); type: biochemical; details: phosphate buffered saline; 0.45 nM enzyme; 283-363 K, 1 K/min
[2] = biological target: T3, Bacillus licheniformis α-amylase (BLA) (Bacillus licheniformis, UniProt P06278); experiment: as above; type: biochemical; details: phosphate buffered saline; 3.8 µM enzyme; 303-363 K, 2 K/min
T3 construct: gene amyS; commercial enzyme (Sigma-Aldrich A3403)
T3 sequence (P06278 30-512): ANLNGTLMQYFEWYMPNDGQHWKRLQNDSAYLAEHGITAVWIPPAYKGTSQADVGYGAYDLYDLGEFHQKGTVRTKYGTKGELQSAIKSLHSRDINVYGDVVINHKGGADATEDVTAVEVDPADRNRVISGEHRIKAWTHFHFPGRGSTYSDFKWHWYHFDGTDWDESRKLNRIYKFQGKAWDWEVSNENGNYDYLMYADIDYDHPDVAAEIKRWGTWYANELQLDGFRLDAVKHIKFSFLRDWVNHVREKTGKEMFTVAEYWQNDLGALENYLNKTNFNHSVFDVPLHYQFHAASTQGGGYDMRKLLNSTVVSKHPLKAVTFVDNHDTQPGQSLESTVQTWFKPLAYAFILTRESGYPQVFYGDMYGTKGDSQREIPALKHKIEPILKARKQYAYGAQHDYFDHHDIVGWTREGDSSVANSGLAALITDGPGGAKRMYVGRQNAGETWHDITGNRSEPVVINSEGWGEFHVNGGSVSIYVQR

[3] = biological target: T2, Pseudoalteromonas haloplanktis α-amylase (AHA); experiment: as above; type: biochemical; details: phosphate buffered saline; 60 nM enzyme; 283-306 K, 1 K/min
purified protein = substrate: CCCC(=O)Oc1ccc([N+](=O)[O-])cc1; experiment: purified protein; type: biochemical, Bacillus pumilus; details: 298 K, 50 mM potassium phosphate pH 7.2, 5% acetonitrile, 1 nM enzyme, stepwise approach, 25.0 °C

Row | Molecule | colourimetric, 405 nm, temperature gradient (ThermoSlope) [1] | colourimetric, 405 nm, temperature gradient (ThermoSlope) [2] | colourimetric, 405 nm, temperature gradient (ThermoSlope) [3] | Km (purified protein) | kcat (purified protein)
1 | O=[N+]([O-])c1ccc(O[C@H]2O[C@H](CO)[C@@H](O[C@H]3O[C@H](CO)[C@@H](O[C@H]4O[C@H](CO)[C@@H](O)[C@H](O)[C@H]4O)[C@H](O)[C@H]3O)[C@H](O)[C@H]2O)c(Cl)c1 [2-Chloro-4-nitrophenyl-α-D-maltotrioside] | α-amylases were completed in a similar fashion using the ThermoSlope-approach with the chromogenic substrate | α-amylases were completed in a similar fashion using the ThermoSlope-approach with the chromogenic substrate | α-amylases were completed in a similar fashion using the ThermoSlope-approach with the chromogenic substrate | – | –
2 | B1 | – | – | – | 500 ± 100 µM | 310 ± 20 s⁻¹
